According to paper PMC4742250 (Biochimica et biophysica acta, 2008):
pIC50, pKd: −log10 of the molar value. Where a SMILES comes first, the peptide text is derived from it. Bridges are numbered along the chain shown (N, C = ends).

Legend:
[1] = tested on: human Src SH3 domain; assay: phage ELISA, binding to human Src SH3 domain; settings: immobilized on polystyrene plates, O.D. 405 nm, triplicate wells
[2] = target: Src SH3; settings: read-out: KD, Src SH3 and its peptide ligand; ref [23]; cited from earlier work
[3] = target: E. coli Trx (Escherichia coli, UniProt P0AA25); assay: dilution binding assay of biotinylated TP-2 to immobilized Trx
[4] = target: Trx-gp5Δ22 interaction (Escherichia coli, UniProt P0AA25); assay: biochemical; design: species or system E. coli (Trx); bacteriophage T7 (gp5Δ22)
Sequence of Trx-gp5Δ22 interaction (P0AA25 2-109, stated change not applied): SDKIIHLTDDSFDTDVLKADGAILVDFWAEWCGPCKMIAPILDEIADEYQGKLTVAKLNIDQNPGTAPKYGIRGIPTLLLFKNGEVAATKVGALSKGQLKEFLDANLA

Sequence of E. coli Trx (P0AA25 whole entry): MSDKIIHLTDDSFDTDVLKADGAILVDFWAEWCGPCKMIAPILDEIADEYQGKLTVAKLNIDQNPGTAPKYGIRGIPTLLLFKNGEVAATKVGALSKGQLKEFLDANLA

Molecule | binding to human Src SH3 domain [1] | pKd [2] | pKd [3] | reduction of peptide binding in the presence of DTT ([3]; 10 mM DTT, data not shown) [%] | pIC50 [4]
H-SSRPLPPLPGS-NH2 [Src SH3 peptide ligand] | binds to Src SH3 domain | ~5.30 |  |  | 
CC[C@H](C)[C@H](NC(=O)[C@H](CC(C)C)NC(=O)[C@H](CCCNC(=N)N)NC(=O)[C@H](CC(=O)O)NC(=O)[C@@H]1CCCN1C(=O)[C@@H](NC(=O)[C@@H](NC(=O)[C@@H]1CSSC[C@H](NC(=O)[C@H](CC(N)=O)NC(=O)[C@@H](NC(=O)[C@H](CC(N)=O)NC(=O)[C@H](CCCNC(=N)N)NC(=O)[C@@H](N)CO)C(C)C)C(=O)N[C@@H](CC(N)=O)C(=O)N[C@@H](C)C(=O)N[C@@H](CO)C(=O)N[C@@H](C(C)C)C(=O)N1)[C@@H](C)O)[C@@H](C)CC)C(=O)N[C@H](C(=O)N[C@@H](CC(=O)O)C(=O)N[C@@H](CC(N)=O)C(=O)N1CCC[C@H]1C(=O)NCC(=O)N[C@@H](CO)C(=O)NCC(=O)N[C@@H](CO)C(N)=O)[C@@H](C)O [TP-2] (H-SRNVNCNASVCTIPDRLITDNPGSGS-NH2; disulfide 6-11) |  |  | 5.70 | > 50 | ~5.00
